Measured values reported in patent US9643991B2, “Process for preparing a novel crystalline form of emamectin benzoate and use the same” (ROTAM AGROCHEM INTERNATIONAL CO., LTD, priority 2015, dated 2017).

Tests used:
[1] = Residue of diluted SG formulations passed through the wet sieve; assay type: physicochemical
Procedure: The procedure in Example 5 was repeated by using emamectin benzoate crystalline forms A and B mentioned in U.S. Pat. No. 6,486,195.
SG samples prepared in Examples 5 and 6 were diluted with water and their residues were compared by passing through the wet sieve.

[2] = Stability of the crystalline modification during prolonged storage; assay type: physicochemical
[3] = cited from earlier work
[4] = system: Lepidoptera pole larvae and many other pests; conditions: cited from earlier work

4″-deoxy-4″-epi-methylamino avermectin B1a/B1b [Crystalline forms V]
Residue, Dilution factor 100 ([1]; SG samples of Examples 5 and 6 diluted with water, wet sieve, dilution factor 100): No residue
Residue, Dilution factor 1000 ([1]; SG samples of Examples 5 and 6 diluted with water, wet sieve, dilution factor 1000): No residue
Stability after dilution ([1]; after dilution, compared to other crystal forms): extremely stable after dilution
Conversion to other crystalline modifications [2]: does not convert to other crystalline modifications

4″-deoxy-4″-epi-methylamino avermectin B1a/B1b [Emamectin benzoate]
Solubility in acetone ([3]; acetone): soluble
Solubility in ethanol ([3]; ethanol): soluble
Solubility in hexane ([3]; hexane): insoluble
Solubility in methanol ([3]; methanol): soluble
Solubility in water ([3]; water): slightly soluble
Insecticidal activity higher than other avermectin pesticides ([4]; compared with abamectin, doramectin, ivermectin): 1-3 orders of magnitude
Effective dose ([4]; very low doses): 0.084-2 g/ha
